“Also recorded” adds a separate entry of the source.
Test system: SKOV3
Test: SKOV3 ovarian tumor model, C4-27z CAR-T cells plus exogenous cytokines
Type: in vivo, NSG mice
Details: for antitumor efficacy of cytokine in combination with CAR-T cell injection: 5 μg daily i.p. for 7 days with 5×10^6 C4-27z CAR-T cells

Row | Substance | antitumor efficacy of cytokine in combination with CAR-T cell injection | CD4+ and CD8+ T cells in peripheral blood (15 days after adoptive transfer) | human T cell number in the tumor (73 days after tumor challenge)
1 | IL-21: common γ-chain family cytokine, exogenous | best tumor suppression |  | 
2 | IL-18: immunostimulatory, proinflammatory cytokine belonging to the IL-1 family | heaviest tumor burden; also recorded: no enhanced effect on antitumor efficacy |  | 
3 | IL-15: common γ-chain family cytokine, exogenous | best tumor suppression | Highest numbers of CD4+ and CD8+ T cells | highest T cell number in the tumor
